These results are taken from US6579882B2, “Cell adhesion-inhibiting antiinflammatory compounds” (Abbott Laboratories, priority 1998, dated 2003).

A word on the melting point: it is the temperature of the solid-liquid transition. Take `N#CN=C(N)c1cc2c(Oc3ccc(Cl)cc3)cncc2s1` [Example 250, 4-(4-Chlorophenoxy)-N′-cyanothieno[2,3-c]pyridine-2-carboximidamide]: the melting point fell in the range of 265 to 268 °C. The result for `Cc1ccc(Sc2cncc3sc(C(N)=O)cc23)c(C)c1` [Example 52, 4-[(2,4-dimethylphenyl)thio]thieno[2,3-c]pyridine-2-carboxamide] reads 193 to 195 °C; that for `NCCNC(=O)c1cc2c(Oc3ccc(Cl)cc3)cncc2s1` [Example 154, N-(2-Aminoethyl)-4-(4-chlorophenoxy)thieno[2,3-c]pyridine-2-carboxamide], 111 to 114 °C. For the molecule `CON=Cc1cc2c(Sc3ccc(C)cc3)cncc2s1` [Example 26, 4-[(4-methylphenyl)thio]thieno[2,3-c]pyridine-2-carboxaldehyde, O-methyloxime], the melting point lay within 95 to 98 °C. The value for `COc1ccc(Sc2cncc3sc(C(N)=O)cc23)cc1` [Example 56, 4-[(4-methoxyphenyl)thio]thieno[2,3-c]pyridine-2-carboxamide] was 219 to 221 °C; that for `NC(=O)c1cc2c(Oc3ccc(C(F)(F)F)cc3)cnc(Cl)c2s1` [Example 318, 7-Chloro-4-[4-(trifluoromethyl)phenoxy]thieno[2,3-c]pyridine-2-carboxamide] was 175 to 176 °C. The result for `Cc1ccc(Sc2cncc3sc(C(=O)Nc4ccc(Cl)cc4)cc23)cc1` [Example 24, N-(4-chlorophenyl)-4-[(4-methylphenyl)thio]thieno[2,3-c]pyridine-2-carboxamide] reads 208 to 211 °C. The value for `Cc1csc2c(Sc3nnc(N)s3)ncnc12` [Example 14, 4-[(5-amino-1,3,4-thiadiazol-2-yl)thio]-7-methylthieno[3,2-d]pyrimidine] was 221 to 223 °C; that for `Cc1c(C(N)=O)sc2cncc(Oc3ccc(Br)cc3)c12` [Example 304, 4-(4-Bromophenoxy)-3-methylthieno[2,3-c]pyridine-2-carboxamide] was 177 to 178 °C; that for `Cc1ccc(Sc2cncc3sc(C(N)=S)cc23)cc1` [Example 41, 4-[(4-methylphenyl)thio]thieno[2,3-c]pyridine-2-carbothioamide] was 181 to 183 °C. `NC(=O)NCc1cc2c(Oc3ccc(Cl)cc3)cncc2s1` [Example 258, N-1[4-(4-Chlorophenoxy)thieno[2,3-c]pyridin-2-yl]methyl urea] showed a melting point of 202 to 204 °C. The result for `CON(C)C(=O)c1cc2c(Sc3ccc(C)cc3)cncc2s1` [Example 22, N-methoxy-N-methyl-4-[(4-methylphenyl)thio]thieno[2,3-c]pyridine-2-carboxamide] reads 103 to 107 °C; that for `CCc1cc2c(Sc3ccc(C)cc3)ncnc2s1` [Example 2, 6-ethyl-4-[(4-methylphenyl)thio]thieno[2,3-d]pyrimidine], 56 to 58 °C. In turn, `Clc1ccc(Oc2cncc3sc(-c4ncon4)cc23)cc1` (hydrate or solvate) [Example 287, 4-(4-Chlorophenoxy)-2-(1,2,4-oxadiazol-3-yl)thieno[2,3-c]pyridine] came in with a melting point of 151 to 152 °C.

In turn, `CCOC(=O)c1cnc2sccc2c1Sc1nnc(C)s1` [Example 134, ethyl 4-[(5-methyl-1,3,4-thiadiazol-2-yl)thio]thieno[2,3-b]pyridine-5-carboxylate] had a melting point of 93 to 94 °C. The value for `CC(=O)c1cc2c(Sc3ccc(C)cc3)cncc2s1` [Example 33, 1-[4-[(4-methylphenyl)thio]thieno[2,3-c]pyridin-2-yl]ethanone] was 134 to 138 °C; that for `CCc1cc2c(SCc3ccccc3)ncnc2s1` [Example 5, 6-ethyl-4-[(phenylmethyl)thio]thieno[2,3-d]pyrimidine] was 54 to 60 °C; that for `CN(C)C(=O)c1cc2c(Oc3ccc(Br)cc3)cncc2s1` [Example 172, 4-(4-Bromophenoxy)-N,N-dimethylthieno[2,3-c]pyridine-2-carboxamide] was 93 to 95 °C. The value for `NC(=O)c1csc(-c2cc3c(Oc4ccc(Cl)cc4)cncc3s2)n1` [Example 293, 2-[4-(4-Chlorophenoxy)thieno[2,3-c]pyridin-2-yl]-1,3-thiazole-4-carboxamide] was 215 to 218 °C; that for `NC(=O)c1cc2c(SC3CCCCC3)cncc2s1` [Example 57, 4-(cyclohexylthio)thieno[2,3-c]pyridine-2-carboxamide] was 205 to 207 °C. The result for `CCc1cc2c(Sc3nnc(C)s3)ncnc2s1` [Example 6, 6-ethyl-4-[(5-methyl-1,3,4-thiadiazol-2-yl)thio]thieno[2,3-d]pyrimidine] reads 132 to 135 °C. For `NC(=O)c1cc2c(Oc3ccc(Cl)cc3)c[nH]c(=O)c2s1` [Example 323, 4-(4-Chlorophenoxy)-7-oxo-6,7-dihydrothieno[2,3-c]pyridine-2-carboxamide], the melting point is over 250 °C. The value for `CCOC(=O)C1(CC)Cc2c(Sc3ccc(C)cc3)ncnc2S1` (stereo not drawn) [Example 7, ethyl 6-ethyl-4-[(4-methylphenyl)thio]thieno[2,3-d]pyrimidine-6-carboxylate] was 87.5 to 90 °C; that for `CN(C)C(=O)c1cc2c(Oc3ccc(C(F)(F)F)cc3)cncc2s1` [Example 173, N,N-Dimethyl-4-[4-(trifluoromethyl)phenoxy]thieno[2,3-c]pyridine-2-carboxamide] was 74 to 76 °C.

With `CC(=NO)c1cc2c(Sc3ccc(C)cc3)cncc2s1` [Example 36, 1-[4-[(4-methylphenyl)thio]thieno[2,3-c]pyridin-2-yl]ethanone, oxime], the melting point is 209 to 213 °C. For the molecule `Clc1ccc(Oc2cncc3sc(C4=NCCO4)cc23)cc1` [Example 296, 4-(4-Chlorophenoxy)-2-(4,5-dihydro-1,3-oxazol-2-yl)thieno[2,3-c]pyridine], the melting point was 158 to 160 °C (dec.). The result for `O=C(NCC(O)CO)c1cc2c(Oc3ccc(Br)cc3)cncc2s1` (stereo not drawn) [Example 149, 4-(4-Bromophenoxy)-N-(2,3-dihydroxypropyl)thieno[2,3-c]pyridine-2-carboxamide] reads 76 to 77 °C; that for `NC(=O)c1cc2c(Oc3ccc(F)c(F)c3F)cncc2s1` [Example 182, 4-(2,3,4-Trifluorophenoxy)thieno[2,3-c]pyridine-2-carboxamide], 218 to 219 °C. The value for `Cc1cc(C)cc(Sc2cncc3sc(C(N)=O)cc23)c1` [Example 51, 4-[(3,5-dimethylphenyl)thio]thieno[2,3-c]pyridine-2-carboxamide] was 177 to 179 °C. `O=C(Nc1ccc(Cl)cc1)c1cnc2sccc2c1Cl` [Example 133, 4-chloro-N-(4-chlorophenyl)thieno[2,3-b]pyridine-5-carboxamide] showed a melting point of 199 to 202 °C.

For `N#Cc1cc2c(Oc3ccc(Cl)cc3)cncc2s1` [Example 248, 4-(4-Chlorophenoxy)thieno[2,3-c]pyridine-2-carbonitrile], the melting point lay in the range of 140 to 142 °C.

For the molecule `Cc1ccc(Sc2cncc3sc(C(=O)NCC(O)CO)cc23)cc1` (stereo not drawn) [Example 37, N-(2,3-dihydroxypropyl)-4-[(4-methylphenyl)thio]thieno[2,3-c]pyridine-2-carboxamide], the melting point lay in the range of 120 to 122 °C. The result for `Cc1ccc(Sc2ncnc3c(C)csc23)cc1` [Example 11, 7-methyl-4-[(4-methylphenyl)thio]thieno[3,2-d]pyrimidine] reads 103 to 107 °C; that for `CONC(=O)c1cc2c(Sc3ccc(C)cc3)cncc2s1` [Example 23, N-methoxy-4-[(4-methylphenyl)thio]thieno[2,3-c]pyridine-2-carboxamide], 200 to 203 °C; that for `Nc1ccc(-c2cc3c(Oc4ccc(Cl)cc4)cncc3s2)cc1` [Example 272, 4-[4-(4-Chlorophenoxy)thieno[2,3-c]pyridin-2-yl]aniline], 178 to 182 °C.

Regarding `O=C(NCCCl)c1cc2c(Oc3ccc(Cl)cc3)cncc2s1`, the melting point was 60 to 62 °C (dec.). The value for `CCc1cc2c(Sc3ccccn3)ncnc2s1` [Example 3, 6-ethyl-4-(2-pyridinylthio)thieno[2,3-d]pyrimidine] was 76.5 to 79 °C; that for `NC(=O)c1cc2c(Oc3cccc(F)c3F)cncc2s1` [Example 178, 4-(2,3-Difluorophenoxy)thieno[2,3-c]pyridine-2-carboxamide] was 207 to 209 °C; that for `Nc1ccccc1C(=O)c1cc2c(Oc3ccc(Cl)cc3)cncc2s1` [Example 251, (2-Aminophenyl)[4-(4-chlorophenoxy)thieno[2,3-c]pyridin-2-yl]methanone] was 152 to 154 °C. `CON=C(C)c1cc2c(Oc3ccc(Cl)cc3)cncc2s1` [Example 243A, 1-[4-(4-Chlorophenoxy)thieno[2,3-c]pyridin-2-yl]-1-ethanone O-methyloxime]: the melting point was 126 to 128 °C.

`Cc1ccc(Sc2cncc3sc(C=NOCC(N)=O)cc23)cc1` [Example 31, 2-[[[4-[(4-methylphenyl)thio]thieno[2,3-c]pyridine-2-ylmethylene]amino]oxy]acetamide] showed a melting point of 152 to 156 °C. The value for `NCc1cc2c(Oc3ccc(Cl)cc3)cncc2s1` [Example 256, [4-(4-Chlorophenoxy)thieno[2,3-c]pyridin-2-yl]methanamine] was 78.6 to 79.8 °C; that for `Cc1ccccc1Sc1cncc2sc(C(N)=O)cc12` [Example 48, 4-[(2-methylphenyl)thio]thieno[2,3-c]pyridine-2-carboxamide] was 170 to 172 °C.

For the molecule `CCc1cc(Oc2cncc3sc(C(N)=O)cc23)ccc1Cl` [Example 176, 4-(4-Chloro-3-ethylphenoxy)thieno[2,3-c]pyridine-2-carboxamide], the melting point lay within 185 to 187 °C. Take `CNC(=O)c1cc2c(Oc3ccc(F)c(F)c3F)cncc2s1` [Example 181, N-Methyl-4-(2,3,4-trifluorophenoxy)thieno[2,3-c]pyridine-2-carboxamide]: the melting point is 170 to 171 °C.
